Assay results as given in US7951405B2 (priority 2004, dated 2011).
Entries after “also recorded” stand apart in the source; their conditions may differ. Where two headings read alike, the source gives them in different places.

Key:
A549 NSCLC xenograft = assay type: in vivo
Description: Mice were implanted with A549 NSCLC cells. […] Tumor size was measured 3 times per week. Values are means, n=10.
(§1) H460a cells (provided by Dr Jack Roth, MD, Anderson) were grown in Dulbecco's Modified Eagle Media (DMEM) supplemented with 10% Foetal Bovine Serum (FBS). A549 cells (American Type Culture Collection [Manassas, Va.] were grown in Roswell Park Memorial Institute medium (RPMI) 1640+10% FBS. The cell concentrations for implant were 1×10^7 cells/0.2 mL for H460a and 7.5×10^6 cells/0.2 mL for A549.
(§2) Cells were suspended in phosphate-buffered saline, and implanted subcutaneously in the right flank of each mouse. Once palpable tumours were established, animals were randomised so that all groups had similar starting mean tumour volumes of 100-150 mm^3. Tumour measurements and mouse weights were taken three times per week. Animals were individually monitored throughout the experiment.
All groups were treated daily for 3 weeks.
All groups were treated every 6 days for 3 weeks (a total of three injections).
(§3) Weight loss was calculated as percent change in mean group body weight, using the formula: ((W−W0)/W0)×100 • where ‘W’ represents mean body weight of the treated group at a particular day, and ‘W0’ represents mean body weight of the same group at start of treatment. Maximum weight loss was also calculated using the above formula, giving the maximum percentage of body weight lost at any time in the entire experiment for a particular group. Treatment efficacy was assessed by tumor growth inhibition. Tumour volumes of treated groups were given as percentages of tumor volumes of the control groups (% T/C), using the formula: 100×((T−T0)/(C−C0)) • where ‘T’ represents mean tumor volume of a treated group on a specific day during the experiment, ‘T0’ represented mean tumor volume of the same group on the first day of treatment, C represents mean tumor volume of a control group on a particular day of the experiment, and C0 represents mean tumor volume of the same group on the first day of treatment.
(§4) Tumor growth inhibition was calculated using the formula: 100−% T/C
(§5) Tumor volume (mm^3) was calculated using the ellipsoid formula: (Dx(d^2))/2 • where ‘D’ represents the large diameter of the tumor, and ‘d’ represents the small diameter. In some cases, tumor regression and/or percentage change in tumor volume was calculated using the formula: ((T−T0)/T0)×100 • where ‘T’ represents mean tumor volume of the treated group at a particular day, and ‘T0’ represents mean tumor volume of the same treated group at the start of treatment.

H460a NSCLC xenograft = assay: Tumor growth inhibition in H460a NSCLC xenograft model; assay type: in vivo, athymic nude mice
Description: (§6) Mice were implanted with H460a NSCLC cells. […] Tumor size was measured 3 times per week. Values are means, n=10.
as §6, §1, §2
All groups were treated daily for 3 weeks. […]
Weight loss was calculated as percent change in mean group body weight, using the formula: ((W−W0)/W0)×100 • where ‘W’ represents mean body weight of the treated group at a particular day, and ‘W0’ represents mean body weight of the same group at start of treatment. Maximum weight loss was also calculated using the above formula, giving the maximum percentage of body weight lost at any time in the entire experiment for a particular group. Treatment efficacy was assessed by tumor growth inhibition. […]
as §4, §5

[1] = cited from earlier work
[2] = assay type: in vivo
Description: FIG. […]
as §3

[3] = Pathology/necropsy and tumor immunohistochemistry in treated xenograft mice
Description: At necropsy, skin samples were fixed in 10% buffered formalin, embedded in paraffin, sectioned at 5μ and stained with haematoxylin and eosin.
Five mice per treatment from all remaining groups were given a full necropsy at the end of the study.
Tumor samples were fixed by immersion in 10% zinc formalin then processed in a Tissue-Tek® VIP (Sakura) and embedded in paraffin. Sections for immunohistochemistry were cut at 5μ. Pre-immune rabbit or goat serum (Dako Ltd) was used as the negative control. Sections were immersed in Target Retrieval Solution (Dako Ltd) and heated to 94° C. in a steamer (Black & Decker) for 20 minutes. Endogenous peroxidase activity was quenched with 6% H2O2 in methanol for 15 minutes.
For platelet endothelial cell adhesion molecule (PECAM-1, CD31) antigen and EGFR antigen, the sections were incubated overnight at room temperature with a polyclonal goat anti-PECAM-1 IgG (Santa Cruz Biotechnology, Santa Cruz, Calif.) diluted 1:800 in Antibody Diluent (Dako Ltd) or with a polyclonal rabbit anti-EGFR IgG (BioGenex, San Ramon, Calif.) diluted 1:50 in Antibody Diluent (Dako Ltd). Sections were incubated with Vectastain Elite ABC-peroxidase (Vector Laboratories) for 45 minutes at room temperature.
To detect apoptosis, the TUNEL TdT-FragEL™ DNA fragmentation detection kit (Oncogene Research Products, San Diego, Calif.) was used according to the manufacturer's recommendations. For all four antigens, Vector Nova Red (Vector Laboratories) was the final chromogen and haematoxylin the nuclear counterstain.

[4] = Chronic-dose plasma and tumor concentrations of erlotinib in tumor-bearing mice; assay type: in vivo, nu/nu athymic mice
Description: On day 28 post tumor implant, blood (from the retro-orbital sinus) and tumor samples were collected at 1 and 6 hours post dosing. […] Values are means±SD, n=3.
(§7) For single-dose pharmacokinetics (PK), blood samples from three mice per time point were collected by cardiac puncture at 5, 15, 30, 60 minutes and 2, 4, 8, 16, 24 hours post-dose. For chronically treated animals, blood samples from two or three mice per time point were collected via the retro-orbital sinus at 1 and 6 hours. Collection tubes contained ethylene diamine tetra-acetic acid (EDTA) as anticoagulant. Samples were stored at −70° C. […] PK parameters were estimated by non-compartmental analysis of the composite data, using the PK evaluation programme WinNonlin PRO® version 3.1 (Pharsight Inc).

[5] = Single-dose pharmacokinetics of erlotinib in non-tumor bearing mice; assay type: in vivo, female nu/nu athymic mice
Description: as §7
Three animals per time point were evaluated for PK data (FIG. 3).

[6] = erlotinib monotherapy, treated xenografts

N.N.[Cl][Pt][Cl] [cisplatin]
Tumor growth inhibition (A549 NSCLC xenograft; cisplatin 1.5 mg/kg, non-significant): 30% | Extent of partial regression (A549 NSCLC xenograft; cisplatin 6 mg/kg): 2% | Number of partial regressions (A549 NSCLC xenograft; cisplatin 6 mg/kg): one | Tumor growth inhibition (A549 NSCLC xenograft; cisplatin 6 mg/kg, day 47 post tumor implantation): 88% | Tumor growth inhibition (H460a NSCLC xenograft; cisplatin 1.5 mg/kg i.p. every 6 days): 42% | Tumor growth inhibition (H460a NSCLC xenograft; cisplatin 6 mg/kg i.p. every 6 days): 81% | MTD ([1]; cisplatin every 4 days x3 i.v. in nude mice (Riccardi 2001)): 4 mg/kg | MTD ([1]; cisplatin every 6 days x2 i.v. in nude mice (Perez-Soler 2001)): 4 mg/kg | MTD ([1]; cisplatin every 6 days x3 i.p. in C57/B16 mice (van Moorsel 1999)): 6 mg/kg | MTD ([2]; cisplatin every 6 days x3 i.p., athymic nude mice): 6 mg/kg | Primary microscopic kidney lesions ([3]; cisplatin alone and in combination, severity dose dependent): tubular necrosis and tubular basophilia

C#Cc1cccc(Nc2ncnc3cc(OCCOC)c(OCCOC)cc23)c1 [erlotinib, [6,7-bis(2-methoxyethoxy)-4-quinazolin-4-yl]-(3-ethynylphenyl) amine]
Tumor growth inhibition (A549 NSCLC xenograft; erlotinib 25 mg/kg, day 47 post tumor implantation): 25% | Extent of partial regression (A549 NSCLC xenograft; erlotinib 100 mg/kg): 2% | Number of partial regressions (A549 NSCLC xenograft; erlotinib 100 mg/kg): one | Tumor growth inhibition (A549 NSCLC xenograft; erlotinib 100 mg/kg, day 47 post tumor implantation): 93% | Tumor regressions (H460a NSCLC xenograft; erlotinib monotherapy dose response study): no partial or complete regressions | Correlation of tumor concentrations with plasma concentrations ([4]; H460a tumor-bearing mice): correlated well | Dose dependence of exposure ([4]; ascending oral doses 6.3-150.0 mg/kg, tumor-bearing mice): dose-dependent and more than dose-proportional | Tolerability ([2]; erlotinib 150 mg/kg for 3 weeks, previous efficacy studies (unpublished observation)): well tolerated | Toxicity outcome ([2]; erlotinib 200 mg/kg group): marked weight loss and all were euthanized | Toxicity outcome ([2]; erlotinib 400 mg/kg group): One mouse in the 400 mg/kg group died | Time of maximum plasma concentration post dose ([5]; 20 and 100 mg/kg single dose by gavage): 0.5 to 1.0 h | Dose proportionality of exposure (AUC) ([5]; 20 vs 100 mg/kg single dose): dose-proportional | Mean maximum plasma concentration ([5]; erlotinib 20 mg/kg single dose by gavage): ~9,100 ng/mL | Mean maximum plasma concentration ([5]; erlotinib 100 mg/kg single dose by gavage): approximately 24,000 ng/mL | Ki-67 proliferative index in tumor ([3]; erlotinib 1000 mg/kg (so in the source), both NSCLC xenograft tumor models): mild decrease | Haematology and clinical chemistry parameters ([3]; erlotinib monotherapy): no changes | Skin lesions (macroscopic) ([3]; erlotinib monotherapy (100 mg/kg/day for 21 days), transient): substantial reddening and crusting of the skin of the muzzle; also recorded: reddened and flaky | Angiogenesis, microvascular density (MVD) via CD31 staining [3, 6]: no clear effect | Frequency of apoptosis in tumor cells (TUNEL) [3, 6]: no significant difference
